Results: PMC7101356, “Cross-site and cross-platform variability of automated patch clamp assessments of drug effects on human cardiac currents in recombinant cells” (Scientific Reports, 2020)
Like-named read-outs stand apart in the source and are kept apart here.

How the values were obtained:
hCav1.2 = hCav1.2 (Homo sapiens, UniProt Q13936); assay: Automated patch clamp, hCav1.2 current block; conditions: site s18_p1
[1] = based on CiPA evaluations; cited from earlier work
late hNav1.5 = target: T1, late hNav1.5 (Homo sapiens, UniProt Q14524); assay: Automated patch clamp, late hNav1.5 current block (ATX-II activated); assay type: cell-based; conditions: for IC50: read-out: log IC50, late hNav1.5 inhibition (converted)
T1 construct: expressed in transfected cells; host or cells: HEK293 or CHO, depending on site

hERG [2] = target: T2, hERG (Homo sapiens, UniProt Q12809); assay: Automated patch clamp, hERG current block, Milnes protocol (site s06); assay type: cell-based; design: expressed in transfected cells; host or cells: HEK293 or CHO, depending on site (site s06, Milnes protocol: HEK293); conditions: s06_p4, HEK293, 22–24 °C
Excerpt: Thus, a single test site (s06) elicited hERG current with a 10-s depolarizing voltage step from −80 mV to 0 mV every 25 s (Milnes protocol, see Milnes et al.[14]).
The steady state current at each concentration was used to determine the concentration-response relationships. Mean concentration-response data were fitted to a standard sigmoidal four-parameter logistic equation (GraphPad Prism 7; GraphPad Inc., La Jolla, CA) of the form: Y=Bottom+(Top−Bottom)/(1+10^∧(LogIC50−X)∗HillSlope) where Y is the current inhibition (in % of pre-drug control), X is the logarithm of drug concentration, and IC50 is the drug concentration producing half-maximal current inhibition. Curve fitting was performed using the following constraints: Top = 100%, Bottom = 0%, Hill Slope <2. No curve fitting was performed in cases with an obvious lack of a concentration-dependent current inhibition and/or small effect size (approximately ≤20%).
This protocol consists of a set of two 25-s-long pulse protocols, with one protocol (“Pulse”) containing a prolonged 10-s-long depolarizing test pulse (0 mV) followed by a 14-s-long return pulse to −80 mV, and a second protocol “No-Pulse” consisting of the same pulse structure without the depolarizing test pulse[18].

hERG [3] = target: T2, hERG; assay: Automated patch clamp, hERG current block (consensus step-ramp protocol); conditions: for hERG K+ current inhibition, Mean, at maximal concentration: max conc [mol/L]: bep 3.00E-07, cpz 3.00E-06, cis 3.00E-07, dil 1.00E-04, dof 1.00E-07, mex 1.00E-04, ond 1.00E-05, qui 1.00E-05, ran 1.00E-04, sot 3.00E-04, ter 3.00E-07, ver 1.00E-06; for hERG K+ current inhibition, Mean, at minimal concentration: min conc [mol/L]: bep 1.00E-08, cpz 1.00E-07, cis 1.00E-09, dil 3.00E-06, dof 1.00E-09, mex 1.00E-06, ond 3.00E-07, qui 1.00E-07, ran 3.00E-06, sot 1.00E-05, ter 1.00E-08, ver 3.00E-08
[4] = s03_p2, HEK293, room temperature
[5] = s16_p3, HEK293, room temperature

T1 sequence (Q14524 whole entry): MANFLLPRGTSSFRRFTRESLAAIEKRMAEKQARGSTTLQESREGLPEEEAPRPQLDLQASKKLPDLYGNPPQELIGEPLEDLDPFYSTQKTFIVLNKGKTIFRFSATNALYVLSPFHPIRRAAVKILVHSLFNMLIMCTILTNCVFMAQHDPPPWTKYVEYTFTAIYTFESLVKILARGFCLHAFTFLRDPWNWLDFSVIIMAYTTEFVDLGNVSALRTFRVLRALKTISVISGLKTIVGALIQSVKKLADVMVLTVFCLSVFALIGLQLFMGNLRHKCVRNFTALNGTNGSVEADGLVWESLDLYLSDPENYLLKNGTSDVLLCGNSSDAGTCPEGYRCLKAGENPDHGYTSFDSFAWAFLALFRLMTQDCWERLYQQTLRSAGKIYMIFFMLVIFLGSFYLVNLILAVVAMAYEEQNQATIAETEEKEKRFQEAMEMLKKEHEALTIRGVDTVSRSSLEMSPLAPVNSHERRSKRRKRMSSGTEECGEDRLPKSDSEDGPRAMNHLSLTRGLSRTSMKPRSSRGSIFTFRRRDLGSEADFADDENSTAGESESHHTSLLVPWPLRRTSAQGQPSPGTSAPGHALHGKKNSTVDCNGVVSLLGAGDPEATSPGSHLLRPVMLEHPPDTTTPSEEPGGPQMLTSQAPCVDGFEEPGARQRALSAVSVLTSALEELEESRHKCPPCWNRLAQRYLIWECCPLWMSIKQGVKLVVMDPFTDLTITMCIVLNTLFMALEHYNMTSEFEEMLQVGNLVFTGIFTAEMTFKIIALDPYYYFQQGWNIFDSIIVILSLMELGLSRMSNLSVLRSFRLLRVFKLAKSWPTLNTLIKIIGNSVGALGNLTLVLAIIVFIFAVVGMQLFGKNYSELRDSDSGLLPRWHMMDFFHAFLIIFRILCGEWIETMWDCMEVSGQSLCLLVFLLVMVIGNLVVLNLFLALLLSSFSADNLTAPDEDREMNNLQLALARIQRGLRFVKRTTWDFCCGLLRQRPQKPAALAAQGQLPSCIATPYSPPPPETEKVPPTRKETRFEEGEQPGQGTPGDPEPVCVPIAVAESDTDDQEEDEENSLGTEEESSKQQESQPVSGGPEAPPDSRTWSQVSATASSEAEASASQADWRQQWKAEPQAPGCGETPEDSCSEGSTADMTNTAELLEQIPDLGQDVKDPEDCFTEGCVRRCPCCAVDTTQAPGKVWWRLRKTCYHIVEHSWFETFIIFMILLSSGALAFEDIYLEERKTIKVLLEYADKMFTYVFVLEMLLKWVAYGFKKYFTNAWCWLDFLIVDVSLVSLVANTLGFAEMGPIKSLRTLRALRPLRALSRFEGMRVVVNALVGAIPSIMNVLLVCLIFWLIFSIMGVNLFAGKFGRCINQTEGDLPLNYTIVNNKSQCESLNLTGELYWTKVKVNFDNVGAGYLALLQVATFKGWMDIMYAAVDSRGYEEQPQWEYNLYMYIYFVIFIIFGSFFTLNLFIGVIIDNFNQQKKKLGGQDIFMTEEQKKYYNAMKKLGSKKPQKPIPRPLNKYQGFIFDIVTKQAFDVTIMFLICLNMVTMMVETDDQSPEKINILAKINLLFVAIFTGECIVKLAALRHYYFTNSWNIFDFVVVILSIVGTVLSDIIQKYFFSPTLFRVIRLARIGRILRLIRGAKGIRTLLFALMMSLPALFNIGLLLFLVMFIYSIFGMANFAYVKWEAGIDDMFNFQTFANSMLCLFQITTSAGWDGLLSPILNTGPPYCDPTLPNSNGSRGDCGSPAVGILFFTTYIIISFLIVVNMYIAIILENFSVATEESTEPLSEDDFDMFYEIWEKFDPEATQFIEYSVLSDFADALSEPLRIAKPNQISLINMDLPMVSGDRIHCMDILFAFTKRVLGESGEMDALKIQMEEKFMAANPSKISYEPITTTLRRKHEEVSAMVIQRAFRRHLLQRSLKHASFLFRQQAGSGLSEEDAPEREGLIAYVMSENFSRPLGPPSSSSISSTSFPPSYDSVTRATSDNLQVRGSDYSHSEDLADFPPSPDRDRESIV
T2 sequence (Q12809 whole entry): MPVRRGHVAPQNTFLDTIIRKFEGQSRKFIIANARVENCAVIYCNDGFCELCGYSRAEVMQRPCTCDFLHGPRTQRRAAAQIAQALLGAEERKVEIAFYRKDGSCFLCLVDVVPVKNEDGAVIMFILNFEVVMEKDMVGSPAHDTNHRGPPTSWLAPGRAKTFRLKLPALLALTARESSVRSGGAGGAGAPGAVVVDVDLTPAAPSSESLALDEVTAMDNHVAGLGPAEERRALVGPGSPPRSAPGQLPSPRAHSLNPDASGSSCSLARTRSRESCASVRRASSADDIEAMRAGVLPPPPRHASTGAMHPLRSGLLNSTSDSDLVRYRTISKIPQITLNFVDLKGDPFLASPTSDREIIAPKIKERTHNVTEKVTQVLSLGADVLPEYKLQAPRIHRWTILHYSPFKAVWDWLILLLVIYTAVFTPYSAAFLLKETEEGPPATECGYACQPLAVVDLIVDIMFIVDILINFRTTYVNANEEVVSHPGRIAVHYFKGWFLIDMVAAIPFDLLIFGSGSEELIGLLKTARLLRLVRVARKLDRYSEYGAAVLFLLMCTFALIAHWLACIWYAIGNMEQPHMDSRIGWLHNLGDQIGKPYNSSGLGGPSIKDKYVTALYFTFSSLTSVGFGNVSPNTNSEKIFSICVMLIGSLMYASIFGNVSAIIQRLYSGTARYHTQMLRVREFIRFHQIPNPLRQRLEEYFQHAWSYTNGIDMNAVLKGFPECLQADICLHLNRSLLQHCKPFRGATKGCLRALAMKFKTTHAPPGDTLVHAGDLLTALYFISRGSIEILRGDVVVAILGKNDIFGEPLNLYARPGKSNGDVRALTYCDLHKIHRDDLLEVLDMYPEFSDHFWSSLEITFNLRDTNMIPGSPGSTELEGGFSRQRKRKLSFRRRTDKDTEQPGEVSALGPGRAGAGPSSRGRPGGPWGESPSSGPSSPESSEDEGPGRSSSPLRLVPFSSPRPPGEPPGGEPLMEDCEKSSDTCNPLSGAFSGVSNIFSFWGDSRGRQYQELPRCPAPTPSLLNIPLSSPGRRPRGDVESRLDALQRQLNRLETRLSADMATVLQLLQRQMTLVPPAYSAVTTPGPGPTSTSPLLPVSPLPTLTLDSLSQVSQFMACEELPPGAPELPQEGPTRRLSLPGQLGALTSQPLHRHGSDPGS

Cc1nccn1CC1CCc2c(c3ccccc3n2C)C1=O (centres unmarked) [ond, ondansetron]
log IC50, half-maximal inhibitory concentration (hCav1.2): no inh. | Peak hCav1.2 Ca2+ current inhibition, Mean (hCav1.2; 3.00E-07 mol/L): 16.9% | TdP Risk Category [1]: Intermediate | nH, Hill slope, late hNav1.5 inhibition (late hNav1.5; site_platform s06_p4): 1.28 | Late hNav1.5 Na+ current inhibition, Mean (late hNav1.5; site_platform s06_p4, 1.00E-05 mol/L): 61.7% | Late hNav1.5 Na+ current inhibition, Mean (late hNav1.5; site_platform s06_p4, 3.00E-07 mol/L): 0.5% | IC50 (late hNav1.5; site_platform s06_p4): 6.92 µM | nH, Hill slope, late hNav1.5 inhibition (late hNav1.5; site_platform s07_p6): 1.57 | Late hNav1.5 Na+ current inhibition, Mean (late hNav1.5; site_platform s07_p6, 1.00E-05 mol/L): 47.6% | Late hNav1.5 Na+ current inhibition, Mean (late hNav1.5; site_platform s07_p6, 3.00E-07 mol/L): -14.8% | IC50 (late hNav1.5; site_platform s07_p6): 10.2 µM | log IC50, late hNav1.5 inhibition (late hNav1.5; site_platform s13_p2): no inh. | Late hNav1.5 Na+ current inhibition, Mean (late hNav1.5; site_platform s13_p2, 1.00E-05 mol/L): 20.9% | Late hNav1.5 Na+ current inhibition, Mean (late hNav1.5; site_platform s13_p2, 3.00E-07 mol/L): 9.2% | log IC50, late hNav1.5 inhibition (late hNav1.5; site_platform s14_p1): no inh. | Late hNav1.5 Na+ current inhibition, Mean (late hNav1.5; site_platform s14_p1, 1.00E-05 mol/L): 40.9% | Late hNav1.5 Na+ current inhibition, Mean (late hNav1.5; site_platform s14_p1, 3.00E-07 mol/L): 20.2% | hERG K+ current nH, Hill slope (hERG [2]): 1.05 | hERG K+ current inhibition, Mean, at maximal concentration (hERG [2]; max conc [mol/L]: bep 3.00E-07, cpz 3.00E-06, cis 3.00E-07, dil 1.00E-04, dof 1.00E-07, mex 1.00E-04, ond 1.00E-05, qui 1.00E-05, ran 1.00E-04, sot 3.00E-04, ter 3.00E-07, ver 1.00E-06): 95.5% | hERG K+ current inhibition, Mean, at minimal concentration (hERG [2]; min conc [mol/L]: bep 1.00E-08, cpz 1.00E-07, cis 1.00E-09, dil 3.00E-06, dof 1.00E-09, mex 1.00E-06, ond 3.00E-07, qui 1.00E-07, ran 3.00E-06, sot 1.00E-05, ter 1.00E-08, ver 3.00E-08): 25.3% | inhibition at 1e-05 mol/L (hERG [3]; human, recombinant cells expressing hERG, hERG K+ current inhibition, Mean, site_platform s07_p5, 1.00E-05 mol/L): 101% | inhibition at 3e-07 mol/L (hERG [3]; human, recombinant cells expressing hERG, hERG K+ current inhibition, Mean, site_platform s07_p5, 3.00E-07 mol/L): 17% | inhibition at 4 min, 1e-05 mol/L (hERG [3]; human, recombinant cells expressing hERG, hERG K+ current inhibition, Mean, site_platform s10_p3, 1.00E-05 mol/L): 71.8% | inhibition at 4 min, 3e-07 mol/L (hERG [3]; human, recombinant cells expressing hERG, hERG K+ current inhibition, Mean, site_platform s10_p3, 3.00E-07 mol/L): 9.7% | inhibition at 7 min, 1e-05 mol/L (hERG [3]; human, recombinant cells expressing hERG, hERG K+ current inhibition, Mean, site_platform s11_p1, 1.00E-05 mol/L): 89.6% | inhibition at 7 min, 3e-07 mol/L (hERG [3]; human, recombinant cells expressing hERG, hERG K+ current inhibition, Mean, site_platform s11_p1, 3.00E-07 mol/L): 11.6% | inhibition at 1e-05 mol/L (hERG [3]; human, recombinant cells expressing hERG, hERG K+ current inhibition, Mean, site_platform s12_p2, 1.00E-05 mol/L): 91.6% | inhibition at 3e-07 mol/L (hERG [3]; human, recombinant cells expressing hERG, hERG K+ current inhibition, Mean, site_platform s12_p2, 3.00E-07 mol/L): 19.3% | inhibition at 1e-05 mol/L (hERG [3]; human, recombinant cells expressing hERG, hERG K+ current inhibition, Mean, site_platform s13_p2, 1.00E-05 mol/L): 90% | inhibition at 3e-07 mol/L (hERG [3]; human, recombinant cells expressing hERG, hERG K+ current inhibition, Mean, site_platform s13_p2, 3.00E-07 mol/L): 11.4% | inhibition at 7 min, 1e-05 mol/L (hERG [3]; human, recombinant cells expressing hERG, hERG K+ current inhibition, Mean, site_platform s14_p1, 1.00E-05 mol/L): 89.4% | inhibition at 7 min, 3e-07 mol/L (hERG [3]; human, recombinant cells expressing hERG, hERG K+ current inhibition, Mean, site_platform s14_p1, 3.00E-07 mol/L): 58.7% | hERG K+ current nH, Hill slope (hERG [3]; s01_p1, CHO, 23 °C): 1.06 | hERG K+ current inhibition, Mean, at maximal concentration (hERG [3]; s01_p1, CHO, 23 °C): 83.1% | hERG K+ current inhibition, Mean, at minimal concentration (hERG [3]; s01_p1, CHO, 23 °C): 8.8% | hERG K+ current nH, Hill slope (hERG [3]; s02_p2, HEK293, 22–26 °C): 1.07 | hERG K+ current inhibition, Mean, at maximal concentration (hERG [3]; s02_p2, HEK293, 22–26 °C): 79.8% | hERG K+ current inhibition, Mean, at minimal concentration (hERG [3]; s02_p2, HEK293, 22–26 °C): 6.1% | hERG K+ current nH, Hill slope (hERG [3]; [4]): 1.08 | hERG K+ current inhibition, Mean, at maximal concentration (hERG [3]; [4]): 99.9% | hERG K+ current inhibition, Mean, at minimal concentration (hERG [3]; [4]): 37.2% | hERG K+ current nH, Hill slope (hERG [3]; s04_p3, CHO, room temperature): 0.97 | hERG K+ current inhibition, Mean, at maximal concentration (hERG [3]; s04_p3, CHO, room temperature): 90.6% | hERG K+ current inhibition, Mean, at minimal concentration (hERG [3]; s04_p3, CHO, room temperature): 22.1% | hERG K+ current nH, Hill slope (hERG [3]; s05_p4, HEK293, 22–24 °C): 1.32 | hERG K+ current inhibition, Mean, at maximal concentration (hERG [3]; s05_p4, HEK293, 22–24 °C): 93.2% | hERG K+ current inhibition, Mean, at minimal concentration (hERG [3]; s05_p4, HEK293, 22–24 °C): 9.6% | hERG K+ current nH, Hill slope (hERG [3]; s15_p1, HEK293, 22–23 °C): 0.88 | hERG K+ current inhibition, Mean, at maximal concentration (hERG [3]; s15_p1, HEK293, 22–23 °C): 87.4% | hERG K+ current inhibition, Mean, at minimal concentration (hERG [3]; s15_p1, HEK293, 22–23 °C): 25.2% | hERG K+ current nH, Hill slope (hERG [3]; [5]): 1.01 | hERG K+ current inhibition, Mean, at maximal concentration (hERG [3]; [5]): 84.1% | hERG K+ current inhibition, Mean, at minimal concentration (hERG [3]; [5]): 11.9% | hERG K+ current nH, Hill slope (hERG [3]; s18_p1, CHO, 35 °C): 1.05 | hERG K+ current inhibition, Mean, at maximal concentration (hERG [3]; s18_p1, CHO, 35 °C): 85.6% | hERG K+ current inhibition, Mean, at minimal concentration (hERG [3]; s18_p1, CHO, 35 °C): 12.7% | hERG K+ current nH, Hill slope (hERG [3]; s19_p3, CHO, room temperature): 1.01 | hERG K+ current inhibition, Mean, at maximal concentration (hERG [3]; s19_p3, CHO, room temperature): 92.9% | hERG K+ current inhibition, Mean, at minimal concentration (hERG [3]; s19_p3, CHO, room temperature): 25.8% | nH (Hill slope), hERG K+ current inhibition (hERG [3]; site_platform s07_p5): 1.26 | nH (Hill slope), hERG K+ current inhibition (hERG [3]; site_platform s10_p3): 0.98 | nH (Hill slope), hERG K+ current inhibition (hERG [3]; site_platform s11_p1): 1.10 | nH (Hill slope), hERG K+ current inhibition (hERG [3]; site_platform s12_p2): 1.03 | nH (Hill slope), hERG K+ current inhibition (hERG [3]; site_platform s13_p2): 1.19 | nH (Hill slope), hERG K+ current inhibition (hERG [3]; site_platform s14_p1): 0.47
